{
  "source": "patent US12503436B2",
  "about": "“Compounds and compositions for treating conditions associated with STING activity” (NOVARTIS PHARMA AG, priority 2021, dated 2025)",
  "data": [
    {"target": "STING (Homo sapiens, UniProt Q86WV6, G230A/H232R/R293Q/R71H)", "sequence (Q86WV6 whole entry R71H/G230A/H232R/R293Q)": "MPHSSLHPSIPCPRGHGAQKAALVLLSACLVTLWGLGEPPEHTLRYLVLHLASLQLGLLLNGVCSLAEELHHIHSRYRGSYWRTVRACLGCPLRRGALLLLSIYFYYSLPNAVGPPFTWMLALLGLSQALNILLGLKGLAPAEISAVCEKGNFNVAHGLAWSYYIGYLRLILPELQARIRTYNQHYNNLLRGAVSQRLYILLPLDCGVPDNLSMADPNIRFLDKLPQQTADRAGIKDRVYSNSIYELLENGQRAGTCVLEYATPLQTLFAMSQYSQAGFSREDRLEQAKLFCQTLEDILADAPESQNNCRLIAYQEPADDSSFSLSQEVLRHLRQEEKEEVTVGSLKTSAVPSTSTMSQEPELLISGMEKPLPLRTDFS", "assay": "STING reporter assay in THP1-Dual KO-IFNAR2 cells (2′3′cGAMP stimulation, luciferase reporter)", "assay_type": "cell-based", "conditions": "15 μM 2′3′cGAMP stimulation, 24 h, read-out: Pharmaron, THP1_IFNAR2 STING 24 h Luci Normalized: GeoMean EC50", "procedure": "STING pathway activation by the compounds described herein was measured using THP1-Dual™ cells (KO-IFNAR2).\nTHP1-Dual™ KO-IFNAR2 Cells (obtained from InvivoGen) were maintained in RPMI, 10% FCS, 5 ml P/S, 2 mM L-glut, 10 mM Hepes, and 1 mM sodium pyruvate. Compounds were spotted in empty 384 well tissue culture plates (Greiner 781182) by Echo for a final concentration of 0.0017-100 μM. Cells were plated into the TC plates at 40 μL per well, 2×10E6 cells/mL. For activation with STING ligand, 2′3′cGAMP (MW 718.38, obtained from Invivogen), was prepared in Optimem media.\nThe following solutions were prepared for each 1×384 plate: • Solution A: 2 mL Optimem with one of the following stimuli: • 60 μL of 10 mM 2′3′cGAMP→150 μM stock • Solution B: 2 mL Optimem with 60 μL Lipofectamine 2000→Incubate 5 min at RT\n2 mL of solution A and 2 ml Solution B was mixed and incubated for 20 min at room temperature (RT). 20 μL of transfection solution (A+B) was added on top of the plated cells, with a final 2′3′cGAMP concentration of 15 μM. The plates were then centrifuged immediately at 340 g for 1 minute, after which they were incubated at 37° C., 5% CO2, >98% humidity for 24 h. Luciferase reporter activity was then measured. EC50 values were calculated by using standard methods known in the art.\nLuciferase reporter assay: 10 μL of supernatant from the assay was transferred to white 384-plate with flat bottom and squared wells. One pouch of QUANTI-Luc™ Plus was dissolved in 25 mL of water. 100 μL of QLC Stabilizer per 25 mL of QUANTI-Luc™ Plus solution was added. 50 μL of QUANTI-Luc™ Plus/QLC solution per well was then added. Luminescence was measured on a Platereader (e.g., Spectramax I3X (Molecular Devices GF3637001)).\nLuciferase reporter activity was then measured. EC50 values were calculated by using standard methods known in the art.", "units": {"EC50": "µM"}, "values": [
      {"smiles": "O=C(Nc1c[nH]c2ccc(O[C@H]3C[C@H](c4ccc(C(F)(F)F)cc4)C3)cc12)C1CC(Cl)C1", "note": "(stereo partly drawn) [Compound 554, 3-chloro-N-(5-(trans-3-(4-(trifluoromethyl)phenyl)cyclobutoxy)-1H-indol-3-yl)cyclobutane-1-carboxamide]", "EC50": "0.2 to 1"},
      {"smiles": "O=C(Nc1c[nH]c2ccc(CCOc3ccc(C(F)(F)F)cc3)cc12)C1CCOCC1", "note": "[Compound 401, N-(5-(2-(4-(trifluoromethyl)phenoxy)ethyl)-1H-indol-3-yl)tetrahydro-2H-pyran-4-carboxamide]", "EC50": "0.2 to 1"},
      {"smiles": "O=C(Nc1c[nH]c2ccc(O[C@H]3C[C@@H](c4ccc(C(F)(F)F)cc4)C3)cc12)C1CC1(F)F", "note": "(stereo partly drawn) [Compound 364, 2,2-difluoro-N-(5-(cis-3-(4-(trifluoromethyl)phenyl)cyclobutoxy)-1H-indol-3-yl)cyclopropane-1-carboxamide]", "EC50": "0.04 to 0.2"},
      {"smiles": "O=C(Nc1c[nH]c2ccc(OCc3ccc(C(F)(F)F)cc3)cc12)C1CCOCC1", "note": "[Compound 156, N-(5-{[4-(trifluoromethyl)phenyl]methoxy}-1H-indol-3-yl)oxane-4-carboxamide]", "EC50": "0.2 to 1"},
      {"smiles": "CC(=O)Nc1c[nH]c2ncc(COCc3ccc(C(F)(F)F)cc3)cc12", "note": "[Compound 271, N-(5-(((4-(trifluoromethyl)benzyl)oxy)methyl)-1H-pyrrolo[2,3-b]pyridin-3-yl)acetamide]", "EC50": "1 to 5"},
      {"smiles": "COC(CCc1ccc2[nH]cc(NC(=O)C3CCC3)c2c1)c1ccc(C(F)(F)F)cc1", "note": "(centres unmarked) [Compound 133, N-(5-(3-methoxy-3-(4-(trifluoromethyl)phenyl)propyl)-1H-indol-3-yl)cyclobutanecarboxamide]", "EC50": "0.2 to 1"},
      {"smiles": "CC(=O)Nc1c[nH]c2ccc(CCNc3ccc(C(F)(F)F)nc3)cc12", "note": "[Compound 126, N-(5-(2-((6-(trifluoromethyl)pyridin-3-yl)amino)ethyl)-1H-indol-3-yl)acetamide]", "EC50": "1 to 5"},
      {"smiles": "COC(=O)C(Cc1ccc(C(F)(F)F)cc1)Cc1ccc2[nH]cc(NC(C)=O)c2c1", "note": "(centres unmarked) [Compound 527, methyl 3-(3-acetamido-1H-indol-5-yl)-2-(4-(trifluoromethyl)benzyl)propanoate]", "EC50": "1 to 5"},
      {"smiles": "COCCOCC(=O)Nc1c[nH]c2ccc(O[C@H]3C[C@@H](c4ccc(C(F)(F)F)cc4)C3)cc12", "note": "[Compound 405, 2-(2-methoxyethoxy)-N-(5-(cis-3-(4-(trifluoromethyl)phenyl)cyclobutoxy)-1H-indol-3-yl)acetamide]", "EC50": "0.2 to 1"},
      {"smiles": "CC1OC(C)C1C(=O)Nc1c[nH]c2ccc(OCCc3ccc(C(F)(F)F)cc3)cc12", "note": "(centres unmarked) [Compound 525, 2,4-dimethyl-N-(5-(4-(trifluoromethyl)phenethoxy)-1H-indol-3-yl)oxetane-3-carboxamide]", "EC50": "0.2 to 1"},
      {"smiles": "C[C@]1(C(=O)Nc2c[nH]c3ccc(OCC[C@@H]4C[C@@H]5CN(CC(F)(F)F)C[C@@H]5C4)cc23)C[C@@H](O)C1", "note": "[Compound 513, (1s,3S)-3-hydroxy-1-methyl-N-(5-(2-((3aR,5r,6aS)-2-(2,2,2-trifluoroethyl)octahydrocyclopenta[c]pyrrol-5-yl)ethoxy)-1H-indol-3-yl)cyclobutane-1-carboxamide]", "EC50": "0.2 to 1"},
      {"smiles": "O=C(Nc1c[nH]c2ccc(/C=C/c3ccc(C(F)(F)F)cc3)cc12)C1CCC1", "note": "[Compound 144, (E)-N-(5-(4-(trifluoromethyl)styryl)-1H-indol-3-yl)cyclobutanecarboxamide]", "EC50": "5 to 100"},
      {"smiles": "O=C(Nc1c[nH]c2ccc(O[C@H]3C[C@H](c4ccc(C(F)(F)F)cc4)C3)cc12)C1CCOCC1", "note": "[Compound 493, N-{5-[(1R,3R)-3-[4-(trifluoromethyl)phenyl]cyclobutoxy]-1H-indol-3-yl}oxane-4-carboxamide]", "EC50": "0.04 to 0.2"},
      {"smiles": "CCC(=O)Nc1c[nH]c2ccc(COc3ccc(C(F)(F)F)cc3)cc12", "note": "[Compound 130, N-(5-((4-(trifluoromethyl)phenoxy)methyl)-1H-indol-3-yl)propionamide]", "EC50": "0.2 to 1"},
      {"smiles": "CC1(C(=O)Nc2c[nH]c3ccc(O[C@H]4C[C@@H](c5ccc(C(F)(F)F)cc5)C4)cc23)CC1", "note": "[Compound 263, 1-methyl-N-(5-(cis-3-(4-(trifluoromethyl)phenyl)cyclobutoxy)-1H-indol-3-yl)cyclopropane-1-carboxamide]", "EC50": "0.2 to 1"},
      {"smiles": "CC1(C(=O)Nc2c[nH]c3ccc(O[C@H]4C[C@H](c5ccc(C(F)(F)F)cc5)C4)cc23)CNC1", "note": "[Compound 567, 3-methyl-N-(5-(trans-3-(4-(trifluoromethyl)phenyl)cyclobutoxy)-1H-indol-3-yl)azetidine-3-carboxamide]", "EC50": "1 to 5"},
      {"smiles": "C[C@H]1C[C@@H](C(=O)Nc2c[nH]c3ccc(CCOc4ccc(C(F)(F)F)cc4)cc23)C1", "note": "[Compound 393, cis-3-methyl-N-(5-(2-(4-(trifluoromethyl)phenoxy)ethyl)-1H-indol-3-yl)cyclobutane-1-carboxamide]", "EC50": "0.2 to 1"},
      {"smiles": "CC(=O)Nc1c[nH]c2ccc(CCOc3ccc(C4CCOCC4)cc3)cc12", "note": "[Compound 226, N-(5-(2-(4-(tetrahydro-2H-pyran-4-yl)phenoxy)ethyl)-1H-indol-3-yl)acetamide]", "EC50": "1 to 5"},
      {"smiles": "CC(=O)Nc1c[nH]c2ccc(OCC[C@H]3CC[C@](O)(C(F)(F)F)CC3)cc12", "note": "[Compound 501, N-(5-(2-(cis-4-hydroxy-4-(trifluoromethyl)cyclohexyl)ethoxy)-1H-indol-3-yl)acetamide]", "EC50": "1 to 5"},
      {"smiles": "CC1(C(=O)Nc2c[nH]c3ccc(CC(O)Cc4ccc(C(F)(F)F)cc4)cc23)CC1", "note": "(centres unmarked) [Compound 174, N-(5-(2-hydroxy-3-(4-(trifluoromethyl)phenyl)propyl)-1H-indol-3-yl)-1-methylcyclopropane-1-carboxamide]", "EC50": "0.2 to 1"},
      {"smiles": "CC(=O)Nc1c[nH]c2ccc(OC(C)Cc3ccc(C(F)(F)F)cc3)cc12", "note": "(single isomer, unassigned) [Compound 286, N-(5-((1-(4-(trifluoromethyl)phenyl)propan-2-yl)oxy)-1H-indol-3-yl)acetamide]", "EC50": "1 to 5"},
      {"smiles": "C[C@H]1C[C@@H](C(=O)Nc2c[nH]c3ccc(OCC[C@@H]4C[C@@H]5CN(CC(F)(F)F)C[C@@H]5C4)cc23)C1", "note": "[Compound 150, (1R,3S)—N-(5-{2-[(3aR,5S,6aS)-2-(2,2,2-trifluoroethyl)-octahydrocyclopenta[c]pyrrol-5-yl]ethoxy}-1H-indol-3-yl)-3-methylcyclobutane-1-carboxamide]", "EC50": "0.2 to 1"},
      {"smiles": "COCC1(C(=O)Nc2c[nH]c3ccc(CCOc4ccc(C(F)(F)F)cc4)cc23)CC1", "note": "[Compound 176, 1-(methoxymethyl)-N-(5-{2-[4-(trifluoromethyl)phenoxy]ethyl}-1H-indol-3-yl)cyclopropane-1-carboxamide]", "EC50": "0.2 to 1"},
      {"smiles": "CC(Cc1ccc(C(F)(F)F)cc1)Cc1ccc2[nH]cc(NC(=O)C3CCC3)c2c1", "note": "(centres unmarked) [Compound 137, N-(5-(2-methyl-3-(4-(trifluoromethyl)phenyl)propyl)-1H-indol-3-yl)cyclobutanecarboxamide]", "EC50": "1 to 5"},
      {"smiles": "CC(=O)Nc1c[nH]c2c(F)cc(CCOc3ccc(C(F)(F)F)cc3)cc12", "note": "[Compound 270, N-(7-fluoro-5-(2-(4-(trifluoromethyl)phenoxy)ethyl)-1H-indol-3-yl)acetamide]", "EC50": "1 to 5"},
      {"smiles": "CC(=O)Nc1c[nH]c2ccc(CCOc3ccc(Cl)nc3C)cc12", "note": "[Compound 556, N-(5-(2-((6-chloro-2-methylpyridin-3-yl)oxy)ethyl)-1H-indol-3-yl)acetamide]", "EC50": "5 to 100"}
    ]}
  ]
}
